# Measurements taken from ChEMBL document CHEMBL4251612, “Naturally occurring Diels-Alder-type adducts from Morus nigra as potent inhibitors of Mycobacterium tuberculosis protein tyrosine phosphatase B” (Eur J Med Chem, 2018).
# Calls of active or inactive are those of the source. No cut-off for these calls is given here.
# Legend:
# [1] = target: T1, Phosphotyrosine protein phosphatase (Mycobacterium tuberculosis, UniProt A0A045ISB3); test: Binding affinity to Mycobacterium tuberculosis PtpB by ITC method
# T1 sequence (A0A045ISB3 whole entry): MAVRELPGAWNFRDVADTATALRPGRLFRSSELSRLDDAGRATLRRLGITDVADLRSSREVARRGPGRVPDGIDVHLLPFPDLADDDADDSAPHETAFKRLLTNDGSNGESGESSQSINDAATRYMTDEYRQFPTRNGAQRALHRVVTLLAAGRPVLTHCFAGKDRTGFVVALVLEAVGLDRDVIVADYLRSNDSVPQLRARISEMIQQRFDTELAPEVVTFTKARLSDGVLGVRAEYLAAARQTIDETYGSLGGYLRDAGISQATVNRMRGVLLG
# [2] = target: T2, Phosphotyrosine protein phosphatase (Mycobacterium tuberculosis) (UniProt A0A045ISB3); test: Binding affinity to Mycobacterium tuberculosis PtpB assessed as binding constant by fluorescence based assay
# T2 sequence (whole entry): T1 sequence (A0A045ISB3 whole entry)
# [3] = target: T3, Tyrosine-protein phosphatase non-receptor type 12 (Homo sapiens, UniProt Q05209); test: Inhibition of PTP-PEST (unknown origin) using p-nitrophenyl phosphate as substrate preincubated for 10 mins followed by substrate addition measured every minute for 10 mins by UV-VIS spectrophotometric analysis
# T3 sequence (Q05209 whole entry): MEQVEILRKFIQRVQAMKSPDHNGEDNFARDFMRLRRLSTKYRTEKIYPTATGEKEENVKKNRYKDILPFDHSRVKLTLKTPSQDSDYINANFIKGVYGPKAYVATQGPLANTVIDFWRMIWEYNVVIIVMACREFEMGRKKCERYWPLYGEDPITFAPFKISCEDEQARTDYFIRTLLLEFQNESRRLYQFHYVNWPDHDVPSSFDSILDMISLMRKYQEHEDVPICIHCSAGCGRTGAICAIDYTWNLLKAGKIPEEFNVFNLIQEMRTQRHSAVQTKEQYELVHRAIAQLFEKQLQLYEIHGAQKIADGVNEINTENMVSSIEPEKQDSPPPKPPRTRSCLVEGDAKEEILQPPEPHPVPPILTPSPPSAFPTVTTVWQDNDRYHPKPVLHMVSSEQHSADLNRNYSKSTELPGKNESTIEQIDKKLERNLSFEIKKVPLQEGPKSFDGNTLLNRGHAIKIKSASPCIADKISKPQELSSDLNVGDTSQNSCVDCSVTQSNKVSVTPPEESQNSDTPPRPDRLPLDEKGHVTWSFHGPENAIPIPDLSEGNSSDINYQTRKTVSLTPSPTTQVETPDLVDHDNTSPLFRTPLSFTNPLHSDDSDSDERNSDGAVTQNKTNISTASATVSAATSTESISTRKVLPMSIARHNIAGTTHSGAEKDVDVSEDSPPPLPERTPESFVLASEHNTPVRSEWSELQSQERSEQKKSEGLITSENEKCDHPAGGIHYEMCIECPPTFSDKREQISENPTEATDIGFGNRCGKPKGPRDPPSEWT
# [4] = target: T4, Tyrosine-protein phosphatase non-receptor type 22 (Homo sapiens, UniProt Q9Y2R2); test: Inhibition of LYP (unknown origin) using p-nitrophenyl phosphate as substrate preincubated for 10 mins followed by substrate addition measured every minute for 10 mins by UV-VIS spectrophotometric analysis
# T4 sequence (Q9Y2R2 whole entry): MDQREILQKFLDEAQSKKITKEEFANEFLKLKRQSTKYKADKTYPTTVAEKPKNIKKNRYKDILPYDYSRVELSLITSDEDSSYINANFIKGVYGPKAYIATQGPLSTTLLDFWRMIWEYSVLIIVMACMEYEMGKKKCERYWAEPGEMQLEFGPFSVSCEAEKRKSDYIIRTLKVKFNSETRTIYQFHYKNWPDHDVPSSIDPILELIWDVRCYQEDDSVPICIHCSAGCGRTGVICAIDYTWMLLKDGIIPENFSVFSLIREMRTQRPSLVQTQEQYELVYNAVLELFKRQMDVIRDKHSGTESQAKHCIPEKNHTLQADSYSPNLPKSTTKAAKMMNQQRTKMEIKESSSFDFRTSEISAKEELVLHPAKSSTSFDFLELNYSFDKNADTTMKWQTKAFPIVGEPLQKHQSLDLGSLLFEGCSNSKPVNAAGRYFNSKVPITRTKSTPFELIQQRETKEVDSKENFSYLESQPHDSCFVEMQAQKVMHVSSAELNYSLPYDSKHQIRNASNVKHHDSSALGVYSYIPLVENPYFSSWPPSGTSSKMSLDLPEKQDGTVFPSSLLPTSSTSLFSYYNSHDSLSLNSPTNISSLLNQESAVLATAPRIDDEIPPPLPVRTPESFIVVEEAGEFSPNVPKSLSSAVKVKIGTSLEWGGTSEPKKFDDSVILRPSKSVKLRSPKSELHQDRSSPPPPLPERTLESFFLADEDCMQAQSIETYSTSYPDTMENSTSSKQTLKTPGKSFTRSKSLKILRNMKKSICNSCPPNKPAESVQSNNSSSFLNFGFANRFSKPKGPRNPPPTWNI
# [5] = target: T1, Phosphotyrosine protein phosphatase; test: Binding affinity to Mycobacterium tuberculosis PtpB by fluorescence based assay
# [6] = target: T2, Phosphotyrosine protein phosphatase (Mycobacterium tuberculosis); test: Reversible inhibition of Mycobacterium tuberculosis PtpB using p-nitrophenyl phosphate as substrate assessed as enzyme recovery at 10 times IC50 preincubated for 10 mins followed by 100-fold dilution; set-up: scale not given: the % may be the effect or the level left
# [7] = tested on: Mycobacterium tuberculosis; test: Antitubercular activity against Mycobacterium tuberculosis H37Ra ATCC 25177 after 7 days by resazurin microtiter assay; type: functional; conditions: H37Ra ATCC 25177, 168 h
# [8] = Cytotoxicity against human THP1 cells after 72 hrs by MTT assay; type: cell-based; conditions: THP-1 cells
# [9] = target: T2, Phosphotyrosine protein phosphatase (Mycobacterium tuberculosis); test: Time independent inhibition of Mycobacterium tuberculosis PtpB at 0.2 uM pre-incubated for 0 to 10 mins before p-nitrophenyl phosphate substrate addition
# [10] = target: T2, Phosphotyrosine protein phosphatase (Mycobacterium tuberculosis); test: Ratio of Kd for binding affinity to Mycobacterium tuberculosis PtpB by fluorescence based assay to Kd for binding affinity to Mycobacterium tuberculosis PtpB by ITC method
# [11] = target: T2, Phosphotyrosine protein phosphatase (Mycobacterium tuberculosis); test: Binding affinity to Mycobacterium tuberculosis PtpB assessed as binding constant by ITC method
# [12] = target: T5, Tyrosine-protein phosphatase non-receptor type 1 (Homo sapiens, UniProt P18031); test: Non-competitive inhibition of human PTP1B using p-nitrophenyl phosphate as substrate up to 7 uM preincubated for 10 mins followed by substrate addition measured every minute for 10 mins by Michaelis-Menten plot analysis
# T5 sequence (P18031 whole entry): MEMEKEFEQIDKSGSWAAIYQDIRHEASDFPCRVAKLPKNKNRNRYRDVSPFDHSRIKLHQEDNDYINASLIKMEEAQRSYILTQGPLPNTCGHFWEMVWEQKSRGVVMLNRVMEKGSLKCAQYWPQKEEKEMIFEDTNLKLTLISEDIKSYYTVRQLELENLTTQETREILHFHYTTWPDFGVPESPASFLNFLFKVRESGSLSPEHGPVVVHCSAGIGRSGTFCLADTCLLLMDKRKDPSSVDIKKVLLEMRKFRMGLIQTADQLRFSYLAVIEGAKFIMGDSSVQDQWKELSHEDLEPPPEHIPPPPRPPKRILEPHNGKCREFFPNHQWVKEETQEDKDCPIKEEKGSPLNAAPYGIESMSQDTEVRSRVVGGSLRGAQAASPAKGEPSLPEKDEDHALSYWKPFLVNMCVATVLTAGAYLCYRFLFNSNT
# [13] = target: T6, Low molecular weight protein-tyrosine phosphatase A (Mycobacterium tuberculosis, UniProt P9WIA1); test: Inhibition of Mycobacterium tuberculosis PtpA using p-nitrophenyl phosphate as substrate preincubated for 10 mins followed by substrate addition measured every minute for 10 mins by UV-VIS spectrophotometric analysis
# T6 sequence (P9WIA1 whole entry): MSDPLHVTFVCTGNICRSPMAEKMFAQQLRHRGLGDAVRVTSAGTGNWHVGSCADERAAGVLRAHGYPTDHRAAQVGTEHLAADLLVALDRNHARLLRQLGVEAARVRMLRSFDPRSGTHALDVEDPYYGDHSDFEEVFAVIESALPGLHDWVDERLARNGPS
# [14] = target: T1, Phosphotyrosine protein phosphatase; test: Inhibition of Mycobacterium tuberculosis PtpB using p-nitrophenyl phosphate as substrate preincubated for 10 mins followed by substrate addition measured every minute for 10 mins by Michaelis-Menten plot analysis
# [15] = tested on: Mycobacterium tuberculosis; test: Antitubercular activity against Mycobacterium tuberculosis H37Ra ATCC 25177 infected in human THP1 cells assessed as reduction in CFU at 14.4 uM after 72 hrs relative to control; type: functional; conditions: H37Ra ATCC 25177, THP-1, 72 h, read-out: GI
# [16] = Selectivity index, ratio of Ki for human PTP1B to Ki for Mycobacterium tuberculosis PtpB
# [17] = target: T5, Tyrosine-protein phosphatase non-receptor type 1; test: Inhibition of human PTP1B using p-nitrophenyl phosphate as substrate preincubated for 10 mins followed by substrate addition measured every minute for 10 mins by UV-VIS spectrophotometric analysis
# [18] = target: T2, Phosphotyrosine protein phosphatase (Mycobacterium tuberculosis); test: Non-competitive inhibition of Mycobacterium tuberculosis PtpB using p-nitrophenyl phosphate as substrate up to 0.3 uM preincubated for 10 mins followed by substrate addition measured every minute for 10 mins by Michaelis-Menten plot analysis
# [19] = target: T2, Phosphotyrosine protein phosphatase (Mycobacterium tuberculosis); test: Binding affinity to Mycobacterium tuberculosis PtpB assessed as protection against proteolytic cleavage at 100 to 400 uM preincubated for 10 mins before trypsin addition by mass spectrometry
# [20] = target: T2, Phosphotyrosine protein phosphatase (Mycobacterium tuberculosis); test: Binding affinity to Mycobacterium tuberculosis PtpB assessed as fluorescence quenching at 0.1 to 4.7 uM by spectropolarimetry
# [21] = target: T2, Phosphotyrosine protein phosphatase (Mycobacterium tuberculosis); test: Binding affinity to Mycobacterium tuberculosis PtpB assessed as sequence coverage level at 100 uM preincubated for 10 mins before trypsin addition by mass spectrometry based peptide mass fingerprint assay (reference value: 92%)
# [22] = target: T2, Phosphotyrosine protein phosphatase (Mycobacterium tuberculosis); test: Binding affinity to Mycobacterium tuberculosis PtpB assessed as Stern-Volmer quenching constant by UV-VIS spectrophotometric analysis
# [23] = target: T1, Phosphotyrosine protein phosphatase; test: Binding affinity to Mycobacterium tuberculosis PtpB by UV-VIS spectrophotometric analysis
# [24] = target: T1, Phosphotyrosine protein phosphatase; test: Inhibition of Mycobacterium tuberculosis PtpB using p-nitrophenyl phosphate as substrate preincubated for 10 mins followed by substrate addition measured every minute for 10 mins by UV-VIS spectrophotometric analysis
# [25] = target: T7, Tyrosine-protein phosphatase non-receptor type 1 (Homo sapiens) (UniProt P18031); test: Binding affinity to human PTP1B assessed as protection against proteolytic cleavage at 400 uM preincubated for 10 mins before trypsin addition and measured after 2 hrs by mass spectrometry
# T7 sequence (whole entry): T5 sequence (P18031 whole entry)
# [26] = tested on: Mycobacterium tuberculosis; test: Antitubercular activity against Mycobacterium tuberculosis H37Ra ATCC 25177 infected in human THP1 cells assessed as reduction in CFU at 13.2 uM after 72 hrs; type: functional, organism-based
# [27] = target: T2, Phosphotyrosine protein phosphatase (Mycobacterium tuberculosis); test: Competitive inhibition of Mycobacterium tuberculosis PtpB using p-nitrophenyl phosphate as substrate up to 0.3 uM preincubated for 10 mins followed by substrate addition measured every minute for 10 mins by Michaelis-Menten plot analysis
# [28] = target: T2, Phosphotyrosine protein phosphatase (Mycobacterium tuberculosis); test: Binding affinity to Mycobacterium tuberculosis PtpB assessed as fluorescence quenching at 0.1 to 3.8 uM by spectropolarimetry
SMILES,IC50 [3] [µM],IC50 [4] [µM],IC50 [13] [µM],IC50 [17] [µM],IC50 [24] [µM],also measured
CC(C)=CCc1c(-c2ccc(O)cc2O)oc2c([C@@H]3C=C(C)C[C@H](c4ccc(O)cc4O)[C@H]3C(=O)c3ccc(O)cc3O)c(O)cc(O)c2c1=O,12.4,18.5,5.89,4.56,0.83,Kd [1]: 2.9 µM; Ka [2]: 1.4 ×10⁶ /M; Kd [5]: 0.7 µM; Activity [6]: 40%; MIC [7]: 32 µg/mL; CC50 at 72 h [8]: 33.8 µg/mL; inhibition [9]: Active; Ratio [10]: 2; Ka [11]: 3.5 ×10⁵ /M; Ki [12]: 0.2 µM; Ki [14]: 0.39 µM; inhibition of growth at 14.4 µM [15]: 61.3%; Ratio Ki [16]: 26; inhibition [18]: Active; Activity [19]: Active; Activity [20]: Active; Activity [21]: 90%; Ka [22]: 1 ×10⁶ /M; Kd [23]: 1 µM; Activity [25]: inactive
CC(C)=CCc1c(-c2ccc(O)cc2O)oc2c3c(cc(O)c2c1=O)OC(C)(C)C=C3 [MORUSIN],> 100,15,4.65,10.3,5.26,
CC(C)=CCc1c(O)ccc(C(=O)[C@H]2[C@@H](c3c(O)cc(-c4cc5ccc(O)cc5o4)cc3O)C=C(C)C[C@@H]2c2ccc(O)cc2O)c1O [CHALCOMORACIN],8.52,7.29,2.43,1.94,1.43,
CC(C)=CCc1c(O)ccc(C(=O)[C@H]2[C@@H](c3c(O)cc(/C=C/c4ccc(O)cc4O)cc3O)C=C(C)C[C@@H]2c2ccc(O)cc2O)c1O,,,,,1.9,Ki [24]: 1.6 µM
O=c1cc(-c2ccc(O)cc2O)oc2cc(O)cc(O)c12 [NORARTOCARPETIN],20.9,30.3,12,5.18,1.2,
CC(C)=CCc1c(O)cc2c(c1O)C(=O)C[C@@H](c1cc3c(cc1O)OC(C)(C)C=C3)O2 [CUDRAFLAVANONE A],18.6,9.54,2.74,4.31,5.07,
CC1=C[C@@H](c2c(O)ccc([C@@H]3CC(=O)c4c(O)cc(O)cc4O3)c2O)[C@H](C(=O)c2ccc(O)cc2O)[C@@H](c2ccc(O)cc2O)C1,18.6,12.1,14,7.98,4.7,
Oc1cc(O)cc(/C=C/c2ccc(O)cc2O)c1 [OXYRESVERATROL],> 100,31.5,67.2,27.1,,
CC(C)=CCc1c(O)ccc(C(=O)[C@@H]2[C@@H](c3ccc(O)cc3O)CC(C)=C[C@H]2c2c(O)cc(O)c3c(=O)c(CC=C(C)C)c(-c4ccc(O)cc4O)oc23)c1O,5.22,11.8,1.49,2.54,0.36,Ka [2]: 1.2 ×10⁶ /M; Kd [5]: 0.85 µM; Activity [6]: 40%; MIC [7]: 32 µg/mL; CC50 at 72 h [8]: 20.2 µg/mL; inhibition [9]: Active; Ki [14]: 0.2 µM; Activity [26]: inactive; Activity [19]: Active; Activity [21]: 93%; Ka [22]: 1 ×10⁶ /M; Kd [23]: 1 µM; inhibition [27]: Active; Activity [28]: Active
